Test results taken from the supplement of paper PMC10307832.

Key:
Assay in all cases: relative viability (nuclei count vs DMSO), 5 days (fraction); higher = more cells survive
ABC-1 = tested on: ABC-1
Method in brief: (§1)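 Each reported value is a median over duplicate plates. It expresses relative viability: treated-well nuclei count divided by vehicle-well nuclei count. Lung cancer cell lines in 1536-well plates were dosed by pin tool a day after seeding, alone with one drug or with a fixed anchor-drug dose plus five library-drug doses (not always all listed) in √10 steps, and nuclei were counted after 5 days.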

COR-L23 = tested on: COR-L23
Method in brief: as §1

ChaGo-K-1 = tested on: ChaGo-K-1
Method in brief: as §1

EPLC-272H = tested on: EPLC-272H
Method in brief: as §1

HCC-15 = tested on: HCC-15
Method in brief: as §1

HCC-366 = tested on: HCC-366
Method in brief: as §1

HCC-44 = tested on: HCC-44
Method in brief: as §1

HCC-827 = tested on: HCC-827
Method in brief: as §1

LCLC-103H = tested on: LCLC-103H
Method in brief: as §1

NCI-H1355 = tested on: NCI-H1355
Method in brief: as §1

NCI-H1734 = tested on: NCI-H1734
Method in brief: as §1

NCI-H1793 = tested on: NCI-H1793
Method in brief: as §1

NCI-H1944 = tested on: NCI-H1944
Method in brief: as §1

NCI-H2009 = tested on: NCI-H2009
Method in brief: as §1

NCI-H2023 = tested on: NCI-H2023
Method in brief: as §1

NCI-H2085 = tested on: NCI-H2085
Method in brief: as §1

NCI-H2228 = tested on: NCI-H2228
Method in brief: as §1

NCI-H2347 = tested on: NCI-H2347
Method in brief: as §1

NCI-H2405 = tested on: NCI-H2405
Method in brief: as §1

NCI-H3122 = tested on: NCI-H3122
Method in brief: as §1

PC-14 = tested on: PC-14
Method in brief: as §1

SW 1573 = tested on: SW 1573
Method in brief: as §1

CCNC(=O)c1noc(-c2cc(C(C)C)c(O)cc2O)c1-c1ccc(CN2CCOCC2)cc1 [Luminespib] + CS(=O)(=O)N1CCN(Cc2cc3nc(-c4cccc5[nH]ncc45)nc(N4CCOCC4)c3s2)CC1 [Pictilisib] (partner 1 µM)
relative viability (ABC-1; first compound 0.002 µM): 0.695
relative viability (ABC-1; first compound 0.006325 µM): 0.693
relative viability (ABC-1; first compound 0.02 µM): 0.407
relative viability (ABC-1; first compound 0.06325 µM): 0.249
relative viability (ABC-1; first compound 0.2 µM): 0.228
relative viability (COR-L23; first compound 0.002 µM): 0.856
relative viability (COR-L23; first compound 0.006325 µM): 0.633
relative viability (COR-L23; first compound 0.02 µM): 0.368
relative viability (COR-L23; first compound 0.06325 µM): 0.0587
relative viability (COR-L23; first compound 0.2 µM): 0.0601
relative viability (ChaGo-K-1; first compound 0.002 µM): 0.782
relative viability (ChaGo-K-1; first compound 0.02 µM): 0.501
relative viability (ChaGo-K-1; first compound 0.06325 µM): 0.345
relative viability (ChaGo-K-1; first compound 0.2 µM): 0.362
relative viability (EPLC-272H; first compound 0.006325 µM): 0.267
relative viability (EPLC-272H; first compound 0.02 µM): 0.254
relative viability (EPLC-272H; first compound 0.06325 µM): 0.197
relative viability (EPLC-272H; first compound 0.2 µM): 0.148
relative viability (HCC-15; first compound 0.002 µM): 0.724
relative viability (HCC-15; first compound 0.006325 µM): 0.644
relative viability (HCC-15; first compound 0.02 µM): 0.623
relative viability (HCC-15; first compound 0.06325 µM): 0.413
relative viability (HCC-15; first compound 0.2 µM): 0.157
relative viability (HCC-366; first compound 0.002 µM): 0.159
relative viability (HCC-366; first compound 0.006325 µM): 0.156
relative viability (HCC-366; first compound 0.02 µM): 0.116
relative viability (HCC-366; first compound 0.06325 µM): 0.0429
relative viability (HCC-366; first compound 0.2 µM): 0.0407
relative viability (HCC-44; first compound 0.002 µM): 0.663
relative viability (HCC-44; first compound 0.006325 µM): 0.641
relative viability (HCC-44; first compound 0.02 µM): 0.62
relative viability (HCC-44; first compound 0.06325 µM): 0.381
relative viability (HCC-44; first compound 0.2 µM): 0.12
relative viability (HCC-827; first compound 0.002 µM): 0.949
relative viability (HCC-827; first compound 0.006325 µM): 1.02
relative viability (HCC-827; first compound 0.02 µM): 0.802
relative viability (HCC-827; first compound 0.06325 µM): 0.555
relative viability (HCC-827; first compound 0.2 µM): 0.551
relative viability (LCLC-103H; first compound 0.002 µM): 0.629
relative viability (LCLC-103H; first compound 0.006325 µM): 0.5
relative viability (LCLC-103H; first compound 0.02 µM): 0.466
relative viability (LCLC-103H; first compound 0.06325 µM): 0.651
relative viability (LCLC-103H; first compound 0.2 µM): 0.271
relative viability (NCI-H1355; first compound 0.002 µM): 0.411
relative viability (NCI-H1355; first compound 0.006325 µM): 0.458
relative viability (NCI-H1355; first compound 0.02 µM): 0.255
relative viability (NCI-H1355; first compound 0.06325 µM): 0.143
relative viability (NCI-H1355; first compound 0.2 µM): 0.152
relative viability (NCI-H1734; first compound 0.002 µM): 0.519
relative viability (NCI-H1734; first compound 0.006325 µM): 0.43
relative viability (NCI-H1734; first compound 0.02 µM): 0.329
relative viability (NCI-H1734; first compound 0.06325 µM): 0.14
relative viability (NCI-H1734; first compound 0.2 µM): 0.146
relative viability (NCI-H1793; first compound 0.002 µM): 0.313
relative viability (NCI-H1793; first compound 0.006325 µM): 0.342
relative viability (NCI-H1793; first compound 0.02 µM): 0.12
relative viability (NCI-H1793; first compound 0.06325 µM): 0.168
relative viability (NCI-H1793; first compound 0.2 µM): 0.194
relative viability (NCI-H1944; first compound 0.002 µM): 0.337
relative viability (NCI-H1944; first compound 0.006325 µM): 0.258
relative viability (NCI-H1944; first compound 0.02 µM): 0.262
relative viability (NCI-H1944; first compound 0.06325 µM): 0.28
relative viability (NCI-H1944; first compound 0.2 µM): 0.22
relative viability (NCI-H2009; first compound 0.002 µM): 0.855
relative viability (NCI-H2009; first compound 0.006325 µM): 0.819
relative viability (NCI-H2009; first compound 0.02 µM): 0.583
relative viability (NCI-H2009; first compound 0.06325 µM): 0.0684
relative viability (NCI-H2009; first compound 0.2 µM): 0.0548
relative viability (NCI-H2023; first compound 0.002 µM): 0.274
relative viability (NCI-H2023; first compound 0.006325 µM): 0.243
relative viability (NCI-H2023; first compound 0.02 µM): 0.105
relative viability (NCI-H2023; first compound 0.06325 µM): 0.0887
relative viability (NCI-H2023; first compound 0.2 µM): 0.0954
relative viability (NCI-H2085; first compound 0.002 µM): 0.448
relative viability (NCI-H2085; first compound 0.006325 µM): 0.511
relative viability (NCI-H2085; first compound 0.02 µM): 0.354
relative viability (NCI-H2085; first compound 0.06325 µM): 0.51
relative viability (NCI-H2085; first compound 0.2 µM): 0.28
relative viability (NCI-H2228; first compound 0.002 µM): 0.496
relative viability (NCI-H2228; first compound 0.006325 µM): 0.373
relative viability (NCI-H2228; first compound 0.02 µM): 0.122
relative viability (NCI-H2228; first compound 0.06325 µM): 0.168
relative viability (NCI-H2228; first compound 0.2 µM): 0.108
relative viability (NCI-H2347; first compound 0.002 µM): 0.751
relative viability (NCI-H2347; first compound 0.006325 µM): 0.609
relative viability (NCI-H2347; first compound 0.02 µM): 0.45
relative viability (NCI-H2347; first compound 0.06325 µM): 0.54
relative viability (NCI-H2347; first compound 0.2 µM): 0.4
relative viability (NCI-H2405; first compound 0.002 µM): 0.514
relative viability (NCI-H2405; first compound 0.006325 µM): 0.298
relative viability (NCI-H2405; first compound 0.02 µM): 0.301
relative viability (NCI-H2405; first compound 0.06325 µM): 0.147
relative viability (NCI-H2405; first compound 0.2 µM): 0.142
relative viability (NCI-H3122; first compound 0.002 µM): 0.621
relative viability (NCI-H3122; first compound 0.006325 µM): 0.621
relative viability (NCI-H3122; first compound 0.02 µM): 0.368
relative viability (NCI-H3122; first compound 0.06325 µM): 0.166
relative viability (NCI-H3122; first compound 0.2 µM): 0.176
relative viability (PC-14; first compound 0.002 µM): 0.698
relative viability (PC-14; first compound 0.006325 µM): 0.588
relative viability (PC-14; first compound 0.02 µM): 0.194
relative viability (PC-14; first compound 0.06325 µM): 0.0484
relative viability (PC-14; first compound 0.2 µM): 0.0383
relative viability (SW 1573; first compound 0.002 µM): 0.508
relative viability (SW 1573; first compound 0.006325 µM): 0.619
relative viability (SW 1573; first compound 0.02 µM): 0.428
relative viability (SW 1573; first compound 0.06325 µM): 0.145
relative viability (SW 1573; first compound 0.2 µM): 0.105
